According to patent publication US9248202B2, “Two-photon probe for detecting copper(II) ion and quantitative estimation of copper(II) ion in human tissue using the same” (Korea University Research and Business Foundation, priority 2014, dated 2016):
Converted amounts (≈) assume the structure as drawn.

Legend:
[1] = pH dependence of Ired/Iblue ratio; type: physicochemical; conditions: 3 μM ACCu2, 200 μM copper(II) ion, excitation 365 nm
Description: The excitation wavelength was 365 nm. […] The increase in the Ired/Iblue ratio at pH<6 can be attributed to the protonation of the nitrogen atom in the pyridine moiety as shown in [Chemical Formula 19]. On the other hand, the increase in the Ired/Iblue ratio at pH>7.0 can be attributed to the decreased copper(II) ion concentration due to the formation of Cu(OH)2. This outcome is different from that reported for the existing one-photon probe.

[2] = tested on: HeLa cells; experiment: Photostability in labeled HeLa cells; type: cell-based, human; design: dose or concentration left out as unconfirmed; conditions: ACCu2-labeled HeLa cells, fs-pulses for 60 minutes
Protocol: The photostability of ACCu2 was determined by monitoring the change in TP excited fluorescence (TPEF) intensity from ACCu2 ([…])-labeled HeLa cells. […] This confirms that ACCu2 according to the present disclosure has high photostability and can measure the copper(II) ion concentration in living cells with minimum interference.

[3] = tested on: rat brain tissue; experiment: Quantitative estimation of copper(II) ion in rat brain tissue slices by TPM
Protocol: Slices were prepared from the hippocampi and hypothalami of 2-day-old Sprague-Dawley (SD) rats. Coronal slices were cut into 400 μm thickness using a vibrating-blade microtome in artificial cerebrospinal fluid (ACSF; 138.6 mM NaCl, 3.5 mM KCl, 21 mM NaHCO3, 0.6 mM NaH2PO4, 9.9 mM D-glucose, 1 mM CaCl2 and 3 mM MgCl2). The slices were incubated with 20 μM ACCu2 in ACSF bubbled with 95% O2 and 5% CO2 for 30 minutes at 37° C. The slices were e then washed 3 times with ACSF, transferred to glass-bottomed dishes (MatTek) and observed with spectral confocal and rnultiphoton microscopy.
Because the structure of the brain tissue is heterogeneous, TPM images were acquired at depths of 90-190 μm to visualize the overall copper(II) on distribution.

[4] = Selectivity of ACCu2 for copper(II) ion against competing metal ions; conditions: ACCu2 3 μM; Na+, K+, Ca2+, Mg2+ 1 mM; transition metal ions 500 μM; then 200 μM Cu2+; EtOH/HEPES (9/1, pH 7.0)
Protocol: The black bars show the result obtained in the presence of alkali metal and alkaline earth metal ions Na^+, K^+, Ca^2+ and Mg^2+ (1 mM) and transition metal ions Mn^2+, Fe^2+, Co^2+, Ni^2+, Zn^2+, Pd^2+, Cd^2+ and […] in EtOH/HEPES (9/1 v/v, pH 7.0), and the white bars show the result obtained after further addition of 200 μM Cu^2+.

[5] = Solubility in HEPES buffer by fluorescence method; type: physicochemical; conditions: aqueous buffer; HEPES buffer ([HEPES]=20 mM, pH 7.0)
Protocol: (hereinafter, ‘ACCu2’), a compound of [Chemical Formula 12] (hereinafter, ‘FL’) and a compound of [Chemical Formula 13] (hereinafter, ‘IR’) in 1,4-dioxane, DMF, ethanol, EtOH/HEPES (9:1) and HEPES buffer ([HEPES]=20 mM, pH 7.0). Excitation wavelength was 420 nm. The solubility of ACCu2 in HEPES buffer ([HEPES]=20 mM, pH 7.0) as determined by the fluorescence method described in the literature (Kim, H. M.; Choo, H. J.; Jung, S. Y.; Ko, Y. G.; Park, W. H.; Jeon, S. J.; Kim, C. H.; Joo, T. H.; Cho, B. R. Chem Bio Chem 2007, 8, 553) was 8.0 μM, which was sufficient to stain cells.

[6] = tested on: HeLa cells; experiment: Two-photon microscopy of ACCu2-labeled HeLa cells, copper(II) ion estimation; type: cell-based, human; conditions: for free copper(II) ion concentration: from Ired/Iblue ratio and titration curve
Description: The two curves were similar to the TPEF spectra of HeLa cells labeled with FL and IR. And, the OP-excited fluorescence (OPEF) spectra of FL and IR measured in EtOH/HEPES (9/1 v/v, pH=7.0) (see Table 1 and FIG. 1) confirmed that this solvent is a good model of the intracellular environment.
In order to investigate the utility of ACCu2 in living cells, TPM images of ACCu2-labeled HeLa cells and tissues were obtained using spectral confocal and multiphoton microscopes (Leica TCS SP2) with ×100 (NA=1.30 OIL) and ×40 (NA=0.75 DRY) objective lenses.
The TPM images were obtained with the DM IRE2 microscope (Leica) by exciting the probes with a mode-locked titanium-sapphire laser source (Coherent Chameleon, 90 MHz, 200 fs) set at a wavelength of 780 nm and an output power of 1305 mW. To obtain images at 400-650 nm, internal PMTs were used to collect signals in 8-bit unsigned 512×512 pixels at a scan rate of 400 Hz.
HeLa human cervical carcinoma cells were acquired from the ATCC (Manassas, Va., USA). The cells were cultured in DMEM (WelGene, Inc., Seoul, Korea) supplemented with heat-inactivated 10% FBS (WelGene), penicillin (100 units/mL) and streptomycin ([…]), All the cell lines were maintained in a humidified atmosphere of 5% CO2 and 95% air at 37° C. Two days before imaging, the cells were moved and plated onto glass-bottomed dishes (MatTek), For labeling, the growth medium was removed and replaced with FBS-free DMEM. The cells were incubated with 3 μM ACCu2 for 20 minutes at 37° C., washed 3 times with FBS-free DMEM and imaged.
Ratiometric images were constructed from the TPEF intensities collected in the two channels (FIG. 9(a)-(c)). The Ired/Iblue ratio for the ACCu2-labeled HeLa cells was measured as 9.9±0.8 (FIG. 9(d)). The ratio decreased to 6.5 upon addition of copper(II) ion (200 μM) and pyrrolidine dithiocarbamate (PDTC, 100 μM) due to accumulation of copper(II) ion inside the cells, and increased to 9.8 upon treatment with ethylenediaminetetraacetic acid (EDTA, 100 μM), a […] metal on chelator that effectively removes copper(II) ion.
Since Iblue remains constant, ACCu2 according to the present disclosure can measure the Ired/Iblue ratio more accurately than the existing probe which requires the measurements of the changes in both Ired and Iblue. The free copper(II) ion concentration was calculated as 0.0±0.7 μM (FIG. 9(a)), 15±2 μM (FIG. 9(b)) and 0.0±1.9 μM (FIG. 9(c)) from the Ired/Iblue ratio and the titration curve shown in FIG. 5(b).

[7] = rat brain tissue, after copper(II) ion (500 μM) and PDTC (200 μM)
[8] = ACCu2-labeled HeLa cells, 750 nm TP excitation, scanning lambda mode

With `COCCOCCOCCOc1ccc2c(ccc3cc(C(=O)N4CCN(C(=O)c5ccc(CNC(=O)c6cc7cc8ccc(N(C)C)cc8cc7oc6=O)nc5)CC4)c(=O)oc32)c1` [ACCu2] the “pH at which Ired/Iblue ratio shows a minimum” value [1] was 6-7, the “photostability: TPEF intensity after continuous radiation” value [2] was “remained nearly the same” and the Ired/Iblue ratio ([3]; ACCu2 (20 μM)-labeled rat brain tissue, untreated) was 9.9±0.5. The Ired/Iblue ratio [3, 7] was 6.8±0.6, the “free copper ion concentration” value [3, 7] was 14 ± 1.5 µM and the “free copper(II) ion concentration” value ([3]; rat brain tissue, untreated) was 0.0 ± 1.1 µM. For the same compound, the “selectivity for Cu2+ in the presence of competing metal ions” value [4] was “uninterrupted in the presence of the alkali metal, alkaline earth metal or transition metal ions”, the solubility [5] was 8 µM (≈ 6.96 µg/mL) and the “TPEF emission maximum, first Gaussian function (solid curve)” value [6, 8] was 470 nm. For the same compound, the “TPEF emission maximum, second Gaussian function (dotted curve)” value [6, 8] was 582 nm, the Ired/Iblue ratio ([6]; ACCu2-labeled HeLa cells, before addition of copper(II) ion) was 9.9±0.8 and the “free copper(II) ion concentration” value ([6]; HeLa cells, FIG. 9(a)) was 0.0 ± 0.7 µM. The “free copper(II) ion concentration” value ([6]; HeLa cells, FIG. 9(b)) was 15 ± 2 µM, the “free copper(II) ion concentration” value ([6]; HeLa cells, FIG. 9(c)) was 0.0 ± 1.9 µM and the Ired/Iblue ratio ([6]; HeLa cells, after copper(II) ion (200 μM) and PDTC (100 μM)) was 6.5. The Ired/Iblue ratio ([6]; HeLa cells, after further treatment with EDTA (100 μM)) was 9.8.
